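Tested at 5 concentrations; 48 h exposure; 96-well plates; endpoints linearly interpolated, else capped at highest concentration. The concentration for full growth arrest is given as TGI.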
Legend:
Test in all cases: growth of human tumour cells (NCI), 48 h
786-0 renal = test system: 786-0 renal
A498 renal = test system: A498 renal
A549 NSCLC = test system: A549 NSCLC
ACHN renal = test system: ACHN renal
BT-549 breast = test system: BT-549 breast
CAKI-1 renal = test system: CAKI-1 renal
CCRF-CEM leukemia = test system: CCRF-CEM leukemia
COLO 205 colon = test system: COLO 205 colon
DU-145 prostate = test system: DU-145 prostate
EKVX NSCLC = test system: EKVX NSCLC
HCC-2998 colon = test system: HCC-2998 colon
HCT-116 colon = test system: HCT-116 colon
HCT-15 colon = test system: HCT-15 colon
HOP-62 NSCLC = test system: HOP-62 NSCLC
HOP-92 NSCLC = test system: HOP-92 NSCLC
HS 578T breast = test system: HS 578T breast
HT29 colon = test system: HT29 colon
IGROV1 ovarian = test system: IGROV1 ovarian
K-562 leukemia = test system: K-562 leukemia
KM12 colon = test system: KM12 colon
LOX IMVI melanoma = test system: LOX IMVI melanoma
M14 melanoma = test system: M14 melanoma
MALME-3M melanoma = test system: MALME-3M melanoma
MCF7 breast = test system: MCF7 breast
MDA-MB-231 breast = test system: MDA-MB-231 breast
MDA-MB-435 = test system: MDA-MB-435
MDA-N = test system: MDA-N
MOLT-4 leukemia = test system: MOLT-4 leukemia
NCI-H226 lung = test system: NCI-H226 lung
NCI-H23 lung = test system: NCI-H23 lung
NCI-H460 lung = test system: NCI-H460 lung
NCI-H522 lung = test system: NCI-H522 lung
NCI/ADR-RES ovarian = test system: NCI/ADR-RES ovarian
OVCAR-3 ovarian = test system: OVCAR-3 ovarian
OVCAR-4 ovarian = test system: OVCAR-4 ovarian
OVCAR-5 ovarian = test system: OVCAR-5 ovarian
OVCAR-8 ovarian = test system: OVCAR-8 ovarian
PC-3 prostate = test system: PC-3 prostate
RPMI-8226 leukemia = test system: RPMI-8226 leukemia
RXF 393 renal = test system: RXF 393 renal
SF-268 CNS = test system: SF-268 CNS
SF-295 CNS = test system: SF-295 CNS
SF-539 CNS = test system: SF-539 CNS
SK-MEL-2 melanoma = test system: SK-MEL-2 melanoma
SK-MEL-28 melanoma = test system: SK-MEL-28 melanoma
SK-MEL-5 melanoma = test system: SK-MEL-5 melanoma
SN12C renal = test system: SN12C renal
SNB-19 CNS = test system: SNB-19 CNS
SNB-75 CNS = test system: SNB-75 CNS
SR leukemia = test system: SR leukemia
SW-620 colon = test system: SW-620 colon
T-47D breast = test system: T-47D breast
TK-10 renal = test system: TK-10 renal
U251 CNS = test system: U251 CNS
UACC-257 melanoma = test system: UACC-257 melanoma
UACC-62 melanoma = test system: UACC-62 melanoma
UO-31 renal = test system: UO-31 renal
HL-60(TB) leukemia = test system: HL-60(TB) leukemia
SK-OV-3 ovarian = test system: SK-OV-3 ovarian

Measured: TGI

O=C(O)c1cccc([As]=[As]c2cccc(C(=O)O)c2)c1 (centres undefined)
90.8 µM: HS 578T breast
79 µM: CCRF-CEM leukemia
53.8 µM: OVCAR-5 ovarian
59.5 µM: RPMI-8226 leukemia
37.1 µM: CAKI-1 renal
95.1 µM: MOLT-4 leukemia
89.5 µM: SR leukemia
72.7 µM: SF-268 CNS
57.1 µM: TK-10 renal
81.8 µM: RXF 393 renal
75.7 µM: A498 renal
69.6 µM: LOX IMVI melanoma
> 100 µM: A549 NSCLC | ACHN renal | BT-549 breast | COLO 205 colon | DU-145 prostate | EKVX NSCLC | HCC-2998 colon | HCT-116 colon | HCT-15 colon | HOP-62 NSCLC | HT29 colon | IGROV1 ovarian | K-562 leukemia | KM12 colon | M14 melanoma | MCF7 breast | MDA-MB-435 | MDA-N | NCI-H226 lung | NCI-H23 lung | NCI-H460 lung | NCI/ADR-RES ovarian | OVCAR-3 ovarian | OVCAR-4 ovarian | OVCAR-8 ovarian | SF-295 CNS | SK-MEL-28 melanoma | SN12C renal | SNB-19 CNS | SNB-75 CNS | SW-620 colon | T-47D breast | UACC-257 melanoma | UACC-62 melanoma | UO-31 renal
37.4 µM: HOP-92 NSCLC
96.1 µM: SK-MEL-5 melanoma
35.7 µM: NCI-H522 lung
39.9 µM: MDA-MB-231 breast
39.1 µM: SF-539 CNS
71.1 µM: 786-0 renal
35.5 µM: U251 CNS
43.9 µM: MALME-3M melanoma
36.7 µM: PC-3 prostate
55.6 µM: SK-MEL-2 melanoma

O=[N+]([O-])c1ccc2c(c1)nc1n2C(c2c(F)cccc2F)SC1 (centres undefined)
> 100 µM: 786-0 renal | A549 NSCLC | ACHN renal | BT-549 breast | CAKI-1 renal | CCRF-CEM leukemia | COLO 205 colon | DU-145 prostate | EKVX NSCLC | HCC-2998 colon | HCT-116 colon | HCT-15 colon | HL-60(TB) leukemia | HOP-62 NSCLC | HOP-92 NSCLC | HS 578T breast | HT29 colon | IGROV1 ovarian | K-562 leukemia | KM12 colon | LOX IMVI melanoma | M14 melanoma | MALME-3M melanoma | MCF7 breast | MDA-MB-231 breast | MDA-MB-435 | MDA-N | MOLT-4 leukemia | NCI-H23 lung | NCI-H460 lung | NCI-H522 lung | NCI/ADR-RES ovarian | OVCAR-3 ovarian | OVCAR-4 ovarian | OVCAR-5 ovarian | OVCAR-8 ovarian | PC-3 prostate | RPMI-8226 leukemia | RXF 393 renal | SF-268 CNS | SF-295 CNS | SF-539 CNS | SK-MEL-2 melanoma | SK-MEL-28 melanoma | SK-MEL-5 melanoma | SK-OV-3 ovarian | SN12C renal | SNB-19 CNS | SNB-75 CNS | SR leukemia | SW-620 colon | T-47D breast | TK-10 renal | U251 CNS | UACC-257 melanoma | UACC-62 melanoma | UO-31 renal

— PubChem BioAssay (NCI)
